According to ChEMBL document CHEMBL5543126, “Combinatorial Ubiquitination REal-time PROteolysis (CURE-PROs): A Modular Platform for Generating Reversible, Self-Assembling Bifunctional Targeted Degraders” (J Med Chem, 2024):

Assays:
[1] = target: T1, von Hippel-Lindau disease tumor suppressor/Bromodomain-containing protein 4 (Homo sapiens, UniProt O60885+P40337); experiment: PROTAC activity at VHL/BRD4 in HEK293 cells assessed as induction of BRD4 degradation by measuring Tmax at 10 uM measured every 15 mins for 24 hrs in presence of BRD4 based ligand ((4S)-6-(4-chlorophenyl)-4-(2-(ethylamino)-2-oxoethyl)-1-methyl4Hbenzo[f][1,2,4]triazolo [4,3-a][1,4]diazepin-8-yl)boronic acid by HiBiT based Combinatorial Ubiquitination Real-time PROteolysis analysis; assay type: cell-based
T1 sequence (P40337 whole entry, looked up, other chains not shown): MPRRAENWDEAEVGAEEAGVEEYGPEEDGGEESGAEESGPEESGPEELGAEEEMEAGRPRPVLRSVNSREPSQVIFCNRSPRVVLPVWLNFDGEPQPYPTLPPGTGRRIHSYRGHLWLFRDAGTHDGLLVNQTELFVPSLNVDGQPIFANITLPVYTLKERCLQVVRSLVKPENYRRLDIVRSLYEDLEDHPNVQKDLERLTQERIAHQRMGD

[2] = Metabolic stability in C57BL/6 mouse liver microsome at 1 uM measured upto 60 mins in absence of NADPH/UDPGA by LC-MS/MS analysis; assay type: ADME; conditions: liver microsomes, read-out: Stability
[3] = Metabolic stability in human liver microsome at 1 uM measured upto 60 mins in presence of NADPH/UDPGA by LC-MS/MS analysis; assay type: ADME; conditions: liver microsomes, read-out: Stability
[4] = target: T1, von Hippel-Lindau disease tumor suppressor/Bromodomain-containing protein 4; experiment: (§1) PROTAC activity at BRD4/VHL in human MCF7 cells assessed as induction of BRD4 degradation by measuring residual activity at 300 nM incubated for 24 hrs in presence of 300 nM BRD4 based ligand ((4S)-6-(4-chlorophenyl)-4-(2-(ethylamino)-2-oxoethyl)-1-methyl4Hbenzo[f][1,2,4]triazolo [4,3-a][1,4]diazepin-8-yl)boronic acid by Western blot based Combinatorial Ubiquitination Real-time PROteolysis analysis; assay type: cell-based
[5] = Half life in C57BL/6 mouse at 10 mg/kg, ip measured upto 24 hrs by LC-MS/MS analysis; assay type: ADME, organism-based; conditions: in vivo
[6] = Metabolic stability in human liver microsome at 1 uM measured upto 60 mins in absence of NADPH/UDPGA by LC-MS/MS analysis; assay type: ADME; conditions: liver microsomes, read-out: Stability
[7] = AUClast in C57BL/6 mouse at 10 mg/kg, ip measured upto 24 hrs by LC-MS/MS analysis; assay type: ADME, organism-based; conditions: in vivo
[8] = target: T1, von Hippel-Lindau disease tumor suppressor/Bromodomain-containing protein 4; experiment: as §1, with “at 10 uM” for “at 300 nM”; assay type: cell-based
[9] = target: T1, von Hippel-Lindau disease tumor suppressor/Bromodomain-containing protein 4; experiment: as §1, with “at 100” for “at 300”, “of 1 uM” for “of 300 nM”; assay type: cell-based
[10] = target: T1, von Hippel-Lindau disease tumor suppressor/Bromodomain-containing protein 4; experiment: PROTAC activity at BRD4/VHL in human MCF7 cells assessed as induction of BRD4 degradation by measuring residual activity at 10 uM incubated for 24 hrs by Western blot analysis; assay type: cell-based
[11] = Metabolic stability in C57BL/6 mouse liver microsome at 1 uM measured upto 60 mins in presence of NADPH/UDPGA by LC-MS/MS analysis; assay type: ADME, microsomes
[12] = target: T1, von Hippel-Lindau disease tumor suppressor/Bromodomain-containing protein 4; experiment: PROTAC activity at BRD4/VHL in human MCF7 cells assessed as induction of BRD4 degradation by measuring residual activity at 100 nM incubated for 24 hrs by Western blot analysis; assay type: cell-based
[13] = Metabolic stability in human liver microsome assessed as half life at 1 uM measured upto 60 mins by LC-MS/MS analysis; assay type: ADME; conditions: liver microsomes
[14] = target: T1, von Hippel-Lindau disease tumor suppressor/Bromodomain-containing protein 4; experiment: PROTAC activity at BRD4/VHL in human MCF7 cells assessed as induction of BRD4 degradation by measuring residual activity at 300 nM incubated for 24 hrs by Western blot analysis; assay type: cell-based
[15] = target: T1, von Hippel-Lindau disease tumor suppressor/Bromodomain-containing protein 4; experiment: as §1, with “at 30” for “at 300”, “of 1 uM” for “of 300 nM”; assay type: cell-based
[16] = Tmax in C57BL/6 mouse at 10 mg/kg, ip measured upto 24 hrs by LC-MS/MS analysis; assay type: ADME, organism-based; conditions: in vivo
[17] = target: T1, von Hippel-Lindau disease tumor suppressor/Bromodomain-containing protein 4; experiment: PROTAC activity at BRD4/VHL in human MCF7 cells assessed as induction of BRD4 degradation by measuring residual activity at 30 nM incubated for 24 hrs by Western blot analysis; assay type: cell-based
[18] = target: T1, von Hippel-Lindau disease tumor suppressor/Bromodomain-containing protein 4; experiment: as §1, with “at 3 uM” for “at 300 nM”, “of 100” for “of 300”; assay type: cell-based
[19] = Cmax in C57BL/6 mouse at 10 mg/kg, ip measured upto 24 hrs by LC-MS/MS analysis; assay type: ADME, organism-based; conditions: in vivo
[20] = target: T1, von Hippel-Lindau disease tumor suppressor/Bromodomain-containing protein 4; experiment: PROTAC activity at BRD4/VHL in human MCF7 cells assessed as induction of BRD4 degradation by measuring residual activity at 1 uM incubated for 24 hrs by Western blot analysis; assay type: cell-based
[21] = target: T1, von Hippel-Lindau disease tumor suppressor/Bromodomain-containing protein 4; experiment: PROTAC activity at BRD4/VHL in human MCF7 cells assessed as induction of BRD4 degradation by measuring residual activity at 3 uM incubated for 24 hrs by Western blot analysis; assay type: cell-based
[22] = Metabolic stability in C57BL/6 mouse liver microsome assessed as half life at 1 uM measured upto 60 mins by LC-MS/MS analysis; assay type: ADME, microsomes
[23] = target: T1, von Hippel-Lindau disease tumor suppressor/Bromodomain-containing protein 4; experiment: (§2) PROTAC activity at VHL/BRD4 in HEK293 cells assessed as induction of BRD4 degradation by measuring degradation rate at 1 uM measured every 15 mins for 24 hrs in presence of VHL based ligand (2S,4R)-1-((S)-2-(2,3-dihydroxybenzamido)-3,3-dimethylbutanoyl)-4-hydroxy-N-(4-(4-methylthiazol-5-yl)benzyl)pyrrolidine-2-carboxamide by HiBiT based Combinatorial Ubiquitination Real-time PROteolysis analysis; assay type: cell-based
[24] = target: T1, von Hippel-Lindau disease tumor suppressor/Bromodomain-containing protein 4; experiment: (§3) PROTAC activity at BRD4/VHL in human MCF7 cells assessed as induction of BRD4 degradation by measuring residual activity at 10 uM incubated for 24 hrs in presence of 3 uM VHL based ligand (2S,4R)-1-((S)-2-(2,3-dihydroxybenzamido)-3,3-dimethylbutanoyl)-4-hydroxy-N-(4-(4-methylthiazol-5-yl)benzyl)pyrrolidine-2-carboxamide by Western blot based Combinatorial Ubiquitination Real-time PROteolysis analysis; assay type: cell-based
[25] = target: T1, von Hippel-Lindau disease tumor suppressor/Bromodomain-containing protein 4; experiment: (§4) PROTAC activity at BRD4/VHL in human MCF7 cells assessed as induction of BRD4 degradation by measuring residual activity at 300 nM incubated for 24 hrs in presence of 300 nM VHL based ligand (2S,4R)-1-((S)-2-(2,3-dihydroxybenzamido)-3,3-dimethylbutanoyl)-4-hydroxy-N-(4-(4-methylthiazol-5-yl)benzyl)pyrrolidine-2-carboxamide by Western blot based Combinatorial Ubiquitination Real-time PROteolysis analysis; assay type: cell-based
[26] = target: T1, von Hippel-Lindau disease tumor suppressor/Bromodomain-containing protein 4; experiment: as §2, with “at 10” for “at 1”; assay type: cell-based
[27] = target: T1, von Hippel-Lindau disease tumor suppressor/Bromodomain-containing protein 4; experiment: as §2, with “measuring Tmax” for “measuring degradation rate”, “at 10” for “at 1”; assay type: cell-based
[28] = target: T1, von Hippel-Lindau disease tumor suppressor/Bromodomain-containing protein 4; experiment: as §3, with “at 100 nM” for “at 10 uM”, “of 10” for “of 3”; assay type: cell-based
[29] = target: T1, von Hippel-Lindau disease tumor suppressor/Bromodomain-containing protein 4; experiment: as §4, with “at 30” for “at 300”, “of 100” for “of 300”; assay type: cell-based

SMILES | remaining at 1 h, 1 µM [2] [%] | remaining at 1 h, 1 µM [3] [%] | half-life [5] [h] | remaining at 1 h, 1 µM [6] [%] | AUC(0-t) at 24 h [7] [ng·h/mL] | Activity [10] [%] | Activity [12] [%] | half-life at 1 µM [13] [h] | Activity [14] [%] | Tmax [16] [h] | Activity [17] [%] | Cmax [19] [ng/mL] | Activity [20] [%] | Activity [21] [%] | other results
Cc1ncsc1-c1ccc(CNC(=O)[C@@H]2C[C@@H](O)CN2C(=O)[C@@H](NC(=O)c2cccc(O)c2O)C(C)(C)C)cc1 | 83 | 73 | 6.3 | 87 | 2340 | 95 | 108 | > 1 | 86 | 0.5 | 102 | 1570 | 92 | 113 | Tmax [1]: 22.2 h; Activity [4]: 68%; Activity [8]: 48%; Activity [9]: 101%; remaining at 1 h, 1 µM ([11]; C57BL/6, mouse, liver microsomes, read-out: Stability): 24%; Activity [15]: 96%; Activity [18]: 51%; half-life at 1 µM ([22]; C57BL/6, mouse, liver microsomes): > 1 h
CCNC(=O)C[C@@H]1N=C(c2ccc(Cl)cc2)c2cc(B(O)O)ccc2-n2c(C)nnc21 | 100 | 107 | 6.3 | 101 | 1860 | 68 | 121 | > 1 | 147 | 0.5 | 116 | 1480 | 91 | 71 | Activity [23]: 0.548 h⁻¹; Activity [24]: 7%; Activity [25]: 68%; Activity [26]: 4.18 h⁻¹; Tmax [27]: 22.2 h; Stability ([11]; mouse, microsomes, 1 h, 1 µM): 112%; Activity [28]: 87%; Activity [29]: 89%; t1/2 ([22]; mouse, microsomes, 1 h, 1 µM): 0.483 h
